{
  "source": "patent US9834808B2",
  "about": "“Methods for rapid antibiotic susceptibility testing” (SeLux Diagnostics, Inc., priority 2016, dated 2017)",
  "key": {"[1]": {"tested_on": "clinical S. aureus strain", "test": "CLSI overnight method MIC", "conditions": "Staphylococcus aureus"}, "[2]": {"tested_on": "S. aureus (QC strain 29213)", "test": "standard CLSI reference method MIC (fast-AST MICs stated to be similar)", "type": "cell-based, Staphylococcus aureus", "protocol": "Microorganism detection is then performed visually.\nS. aureus (QC strain 29213) was cultured under standard sterile conditions in Mueller-Hinton (MH) broth overnight at 37° C. with shaking.\nThe microplates, each well containing 100 μL, were inoculated with the prepared antimicrobial dilutions and incubated at 37° C. for 3 hours, 45 minutes for determination using the present invention (the “fast-AST” technique). The “fast-AST” microplates were removed from the shaking incubator after 3 hours, 45 minutes and centrifuged for 2.5 minutes at 2500×g in order to pellet. The MH broth was then aspirated and 100 μL of 25 mM PBS was added to each well of both microplates. Then, 10 µL of the chemical moiety (here, Europium-Cryptate formulation) was added to each well (to 20 ng/well) and 10 μL of 0.005% Glutaraldehyde (as the signaling agent) was added to each well. The two microplates were then shaken at 300 rpm for 30 minutes. After, both plates were centrifuged for 2.5 minutes at 2500×g to pellet. The solution was aspirated and a wash of 200 μL PBS-tween was added to each well, followed by a centrifugation to pellet. After aspiration of solution, a second identical wash of 200 μL PBS-tween occurred, followed by a final centrifugation to pellet. 200 μL PBS-tween was added to each well. The plate was then read using time resolved fluorescence on a BioTek H1 plate reader."}, "[3]": {"tested_on": "Pseudomonas aeruginosa (ATCC strain 27853)", "test": "fast-AST MIC determination (HRP-conjugated anti-P. aeruginosa antibody signaling agent)", "type": "cell-based", "conditions": "ATCC27853, 3.5 hours incubation, susceptible strain, FIG. 6, FIG. 7", "protocol": "(§1) Similarly, a culture of Pseudomonas aeruginosa (ATCC strain 27853) was grown using MH broth overnight at 37° C. with vigorous shaking. […] The data shown in FIG. 6 depicts from the 5 minute point after the start of incubation with detection solution. […] The MIC determined by both techniques is the same: 4 μg/ml.\n(§2) The MIC for the resistant P. aeruginosa strain, ATCC BAA-2108, was determined similarly. The same 96-well microplate was used for both strains, with 48 wells dedicated to each strain."}, "[4]": {"tested_on": "Pseudomonas aeruginosa (ATCC strain 27853)", "test": "standard overnight growth, OD600 control MIC determination", "type": "cell-based", "conditions": "ATCC27853, overnight (>12 hours) incubation, FIG. 6", "protocol": "as §1"}, "[5]": {"tested_on": "resistant P. aeruginosa strain, ATCC BAA-2108", "test": "fast-AST MIC determination, resistant strain", "type": "cell-based", "conditions": "Pseudomonas aeruginosa, ATCCBAA2108, FIG. 7", "protocol": "as §1, §2"}, "[6]": {"tested_on": "clinical resistant E. coli (\"Clinical\")", "test": "fast-AST with Europium-Cryptate/glutaraldehyde, clinical strain", "type": "cell-based, Escherichia coli", "conditions": "3 hours 45 minutes incubation, FIG. 17, FIG. 21", "protocol": "(§3) Both Escherichia coli (QC strain, ATCC 25922) and clinical resistant E. coli (“Clinical”) were cultured under standard sterile conditions in Mueller-Hinton (MH) broth overnight at 37° C. with shaking. The E. coli concentration from the overnight culture was then set to 5×10^5 CFU/ml using the McFarland standard technique for optical density readings at 600 nm. Concurrently, two sterile 96-well microplates were prepared with serial dilutions of a specified antimicrobial (see below) and a no-antimicrobial (saline) control, all in MH broth. The microplates, each well containing 200 μL, were inoculated with the prepared antimicrobial dilutions and incubated at 37° C. for 3 hours, 45 minutes for determination using the present invention (the “fast-AST” technique). The “fast-AST” microplates were removed from the shaking incubator after 3 hours, 45 minutes and centrifuged for 2.5 minutes at 2500 g in order to pellet. The MH broth was then aspirated and 100 μL of water was added to each well of both microplates. Then, 10 μL of the chemical moiety (here, Europium-Cryptate formulation) was added to each well (to 20 ng/well) and 10 μL of 5% Glutaraldehyde (as the signaling agent) was added to each well. The two microplates were then shaken at 300 rpm for 30 minutes. […] The plate was then read using time resolved fluorescence on a BioTek H1 plate reader."}, "[7]": {"tested_on": "Escherichia coli (QC strain, ATCC 25922) and clinical resistant E. coli (\"Clinical\")", "test": "fast-AST with Europium-Cryptate/glutaraldehyde, QC strain compared with clinical strain", "type": "cell-based", "conditions": "3 hours 45 minutes incubation, FIG. 16 to FIG. 23", "protocol": "as §3"}, "[8]": {"tested_on": "ampicillin-resistant E. coli (ATCC 39936)", "test": "fluorescent nanoparticle signaling agent assay (free signaling agents in filtrate)", "type": "cell-based, Escherichia coli", "conditions": "100 μg/ml ampicillin, 1.5 hours, 0.2 μm filtrate; FIG. 41", "protocol": "(§4) Both Escherichia coli (ATCC 11303) and ampicillin-resistant E. coli (ATCC 39936) were cultured under standard sterile conditions in LB broth at 37° C. Concentrations were determined by measuring absorbance at 600 nm (McFarland), and a concentration of 5×10^5 CFU/ml was set by dilution. Ampicillin was then weighed into sterile water and added in appropriate concentrations to sterile 3 mL microfuge tubes. Bacteria and nanoparticles at a concentration of 8×10^8 nanoparticles/ml were both added to these ampicillin-coated sterile microfuge tubes. The tubes were then capped and placed at 37° C. for 1.5 hours with continuous shaking, after which they were opened and each was passed through a 0.2 μm filter. Next, 100 μL of each filtrate was added to a well of a 96-well plate and 150 μL of a development solution (5% tetramethylammonium hydroxide in ethanol) was added to each well. After 5 minutes the plate was read at 490 nm excitation/530 nm emission in a SpectraMax M2 microplate reader (Molecular Devices).\n(§5) An assay for free signaling agents, which are not associated with intact bacteria, was performed after intact bacteria were removed by filtration through a 0.2 μm filter."}, "[9]": {"tested_on": "Escherichia coli (ATCC 11303)", "test": "fluorescent nanoparticle signaling agent assay (free signaling agents in filtrate)", "type": "cell-based", "protocol": "as §4, §5"}, "[10]": {"conditions": "standard CLSI reference method, fast-AST MICs similar, FIG. 24 to FIG. 26"}},
  "data": [
    {"molecule": "CN[C@H](CC(C)C)C(=O)N[C@H]1C(=O)N[C@@H](CC(N)=O)C(=O)N[C@H]2C(=O)N[C@H]3C(=O)N[C@H](C(=O)N[C@H](C(=O)O)c4cc(O)cc(O)c4-c4cc3ccc4O)[C@H](O)c3ccc(c(Cl)c3)Oc3cc2cc(c3O[C@@H]2O[C@H](CO)[C@@H](O)[C@H](O)[C@H]2O[C@H]2C[C@](C)(N)[C@H](O)[C@H](C)O2)Oc2ccc(cc2Cl)[C@H]1O", "note": "[Vancomycin]", "values": [
      {"measurement": "MIC", "setting": "[1]", "value": 8, "unit": "µg/mL"},
      {"measurement": "MIC", "setting": "[2]; Staphylococcus aureus", "value": "0.5 to 2", "unit": "µg/mL"}
    ]},
    {"molecule": "CC(C)(O/N=C(\\C(=O)N[C@@H]1C(=O)N2C(C(=O)[O-])=C(C[n+]3ccccc3)CS[C@H]12)c1csc(N)n1)C(=O)O", "note": "[ceftazidime]", "values": [
      {"measurement": "MIC", "setting": "[3]", "value": 4, "unit": "µg/mL"},
      {"measurement": "MIC", "setting": "[4]", "value": 4, "unit": "µg/mL"}
    ]},
    {"molecule": "C[C@@H](O)[C@H]1C(=O)N2C(C(=O)O)=C(SCCN=CN)C[C@H]12", "note": "[imipenem]", "values": [
      {"measurement": "MIC", "setting": "[3]", "value": 2, "unit": "µg/mL"},
      {"measurement": "MIC", "setting": "[5]", "value": 32, "unit": "µg/mL"}
    ]},
    {"molecule": "CC1(C)S[C@@H]2[C@H](NC(=O)[C@H](N)c3ccccc3)C(=O)N2[C@H]1C(=O)O", "note": "[ampicillin]", "values": [
      {"measurement": "susceptibility call of the clinical strain", "setting": "[6]", "value": "resistant"},
      {"measurement": "MICs of QC strain compared with clinical resistant strain", "setting": "[7]", "value": "dissimilar MICs"},
      {"measurement": "fluorescent signal of free signaling agent", "setting": "[8]", "value": "low fluorescent signals"},
      {"measurement": "fluorescent signal of free signaling agent", "setting": "[9]; 100 μg/ml ampicillin, 1.5 hours, 0.2 μm filtrate, FIG. 41", "value": "significant increase in fluorescence"},
      {"measurement": "MIC", "setting": "[9]; Escherichia coli, ATCC11303, varying ampicillin concentrations, fluorescent nanoparticle assay, FIG. 42", "value": "~15", "unit": "µg/mL"}
    ]},
    {"molecule": "Teicoplanin", "values": [
      {"measurement": "MIC", "setting": "[2]; [10]", "value": "0.25 to 1", "unit": "µg/mL"}
    ]},
    {"molecule": "Penicillin", "values": [
      {"measurement": "MIC", "setting": "[2]; [10]", "value": "0.25 to 2", "unit": "µg/mL"}
    ]}
  ]
}
